Measured values published in patent publication US20230085307A1, “PYRIDAZINONE COMPOUND AND HERBICIDE” (NISSAN CHEMICAL CORPORATION, priority 2019, published 2023).

How the values were obtained:
windgrass [1] = assay: Test Example 4: herbicidal effect by soil treatment (Table 19, symbol L); assay type: in vivo, windgrass (Apera spica-venti); conditions: amount of applied herbicide 320 g/ha
Outline: (§1)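 Applied as a water-diluted emulsion, the compound was sprayed onto soil covering newly sown seeds. Evaluation came three weeks after application, in a greenhouse held at 25° C. to 30° C.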

velvetleaf [2] = assay: Test Example 5: herbicidal effect by foliage application, plastic box (Table 20, symbol M); assay type: in vivo, velvetleaf (Abutilon theophrasti); conditions: foliage application, three weeks after application
Outline: (§2)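 Sow seeds spot-wise in sterilized diluvial soil; cover with ~1.5 cm soil. Grow 14 days in greenhouse, 25° C. to 30° C. Spray foliage with emulsion diluted to predetermined amount. Rate effect after 3 weeks.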

chickweed [3] = assay: Test Example 4: herbicidal effect by soil treatment (Table 19, symbol P); assay type: in vivo, common chickweed (Stellaria media); conditions: amount of applied herbicide 320 g/ha
Outline: as §1

southern crabgrass [4] = assay: Test Example 5: herbicidal effect by foliage application, plastic box (Table 20, symbol F); assay type: in vivo, southern crabgrass (Digitaria ciliaris); conditions: foliage application, three weeks after application
Outline: as §2

lambsquarters [5] = assay: Test Example 4: herbicidal effect by soil treatment (Table 19, symbol O); assay type: in vivo, lambsquarters (Chenopodium album); conditions: amount of applied herbicide 320 g/ha
Outline: as §1

barnyard grass [6] = assay: Test Example 4: herbicidal effect by soil treatment (Table 19, symbol H); assay type: in vivo, barnyard grass (Echinochloa crus-galli); conditions: amount of applied herbicide 320 g/ha
Outline: as §1

redroot pigweed [7] = assay: Test Example 5: herbicidal effect by foliage application, plastic box (Table 20, symbol N); assay type: in vivo, redroot pigweed (Amaranthus retroflexus); conditions: foliage application, three weeks after application
Outline: as §2

Italian ryegrass [8] = assay: Test Example 5: herbicidal effect by foliage application, plastic box (Table 20, symbol K); assay type: in vivo, Italian ryegrass (Lolium multiflorum); conditions: foliage application, three weeks after application
Outline: as §2

false cleavers [9] = assay: Test Example 4: herbicidal effect by soil treatment (Table 19, symbol Q); assay type: in vivo, false cleavers (Galium spurium); conditions: amount of applied herbicide 320 g/ha
Outline: as §1

lambsquarters [10] = assay: Test Example 5: herbicidal effect by foliage application, plastic box (Table 20, symbol O); assay type: in vivo, lambsquarters (Chenopodium album); conditions: foliage application, three weeks after application
Outline: as §2

Italian ryegrass [11] = assay: Test Example 4: herbicidal effect by soil treatment (Table 19, symbol K); assay type: in vivo, Italian ryegrass (Lolium multiflorum); conditions: amount of applied herbicide 320 g/ha
Outline: as §1

persian speedwell [12] = assay: Test Example 5: herbicidal effect by foliage application, plastic box (Table 20, symbol R); assay type: in vivo, Persian speedwell (Veronica persica); conditions: foliage application, three weeks after application
Outline: as §2

blackgrass [13] = assay: Test Example 5: herbicidal effect by foliage application, plastic box (Table 20, symbol J); assay type: in vivo, blackgrass (Alopecurus myosuroides); conditions: foliage application, three weeks after application
Outline: as §2

redroot pigweed [14] = assay: Test Example 4: herbicidal effect by soil treatment (Table 19, symbol N); assay type: in vivo, redroot pigweed (Amaranthus retroflexus); conditions: amount of applied herbicide 320 g/ha
Outline: as §1

blackgrass [15] = assay: Test Example 4: herbicidal effect by soil treatment (Table 19, symbol J); assay type: in vivo, blackgrass (Alopecurus myosuroides); conditions: amount of applied herbicide 320 g/ha
Outline: as §1

wild oat [16] = assay: Test Example 4: herbicidal effect by soil treatment (Table 19, symbol I); assay type: in vivo, wild oat (Avena fatua); conditions: amount of applied herbicide 320 g/ha
Outline: as §1

barnyard grass [17] = assay: Test Example 3: herbicidal effect by foliage application, Wagner pot (Table 18, symbol H); assay type: in vivo, barnyard grass (Echinochloa crus-galli); conditions: 320 g/ha
Outline: (§3)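 Plants were sown in alluvial soil held under 0.1–0.5 cm standing water and grown 14 days in a greenhouse at 25–30 °C. An emulsifiable formulation, water-diluted to the set dose, was then sprayed onto the foliage, and effects were scored three weeks later using previously defined criteria.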

velvetleaf [18] = assay: Test Example 4: herbicidal effect by soil treatment (Table 19, symbol M); assay type: in vivo, velvetleaf (Abutilon theophrasti); conditions: amount of applied herbicide 320 g/ha
Outline: as §1

green foxtail [19] = assay: Test Example 4: herbicidal effect by soil treatment (Table 19, symbol G); assay type: in vivo, green foxtail (Setaria viridis); conditions: amount of applied herbicide 320 g/ha
Outline: as §1

false cleavers [20] = assay: Test Example 5: herbicidal effect by foliage application, plastic box (Table 20, symbol Q); assay type: in vivo, false cleavers (Galium spurium); conditions: foliage application, three weeks after application
Outline: as §2

chickweed [21] = assay: Test Example 5: herbicidal effect by foliage application, plastic box (Table 20, symbol P); assay type: in vivo, common chickweed (Stellaria media); conditions: foliage application, three weeks after application
Outline: as §2

southern crabgrass [22] = assay: Test Example 4: herbicidal effect by soil treatment (Table 19, symbol F); assay type: in vivo, southern crabgrass (Digitaria ciliaris); conditions: amount of applied herbicide 320 g/ha
Outline: as §1

green foxtail [23] = assay: Test Example 5: herbicidal effect by foliage application, plastic box (Table 20, symbol G); assay type: in vivo, green foxtail (Setaria viridis); conditions: foliage application, three weeks after application
Outline: as §2

windgrass [24] = assay: Test Example 5: herbicidal effect by foliage application, plastic box (Table 20, symbol L); assay type: in vivo, windgrass (Apera spica-venti); conditions: foliage application, three weeks after application
Outline: as §2

rice flat sedge = assay: Test Example 3: herbicidal effect by foliage application, Wagner pot (Table 18, symbol E); assay type: in vivo, rice flat sedge (Cyperus iria); conditions: 320 g/ha
Outline: as §3

barnyard grass [25] = assay: Test Example 5: herbicidal effect by foliage application, plastic box (Table 20, symbol H); assay type: in vivo, barnyard grass (Echinochloa crus-galli); conditions: foliage application, three weeks after application
Outline: as §2

wild oat [26] = assay: Test Example 5: herbicidal effect by foliage application, plastic box (Table 20, symbol I); assay type: in vivo, wild oat (Avena fatua); conditions: foliage application, three weeks after application
Outline: as §2

persian speedwell [27] = assay: Test Example 4: herbicidal effect by soil treatment (Table 19, symbol R); assay type: in vivo, Persian speedwell (Veronica persica); conditions: amount of applied herbicide 320 g/ha
Outline: as §1

Chinese sprangletop = assay: Test Example 3: herbicidal effect by foliage application, Wagner pot (Table 18, symbol D); assay type: in vivo, chinese sprangletop (Leptochloa chinensis); conditions: 320 g/ha
Outline: as §3

## COc1c(C)cc(-c2sc3ccccc3c2-c2c(O)c(C)nn(C)c2=O)cc1C [1-074]
Windgrass [1]
  herbicidal effect rating, L: windgrass: 0 (Herbicidal rate of 5% or less (almost no effect))
Velvetleaf [2]; 320 g/ha
  herbicidal effect grade, M: velvetleaf: 0 (Herbicidal rate of 5% or less (almost no effect))
Chickweed [3]
  herbicidal effect rating, P: chickweed: 0 (Herbicidal rate of 5% or less (almost no effect))
Southern crabgrass [4]; 320 g/ha
  herbicidal effect grade, F: southern crabgrass: 0 (Herbicidal rate of 5% or less (almost no effect))
Lambsquarters [5]
  herbicidal effect rating, O: lambsquarters: 0 (Herbicidal rate of 5% or less (almost no effect))
Barnyard grass [6]
  herbicidal effect rating, H: barnyard grass: 0 (Herbicidal rate of 5% or less (almost no effect))
Redroot pigweed [7]; 320 g/ha
  herbicidal effect grade, N: redroot pigweed: 0 (Herbicidal rate of 5% or less (almost no effect))
Italian ryegrass [8]; 320 g/ha
  herbicidal effect grade, K: Italian ryegrass: 4 (Herbicidal rate of 70% or more and less than 90%)
False cleavers [9]
  herbicidal effect rating, Q: false cleavers: 0 (Herbicidal rate of 5% or less (almost no effect))
Lambsquarters [10]; 320 g/ha
  herbicidal effect grade, O: lambsquarters: 0 (Herbicidal rate of 5% or less (almost no effect))
Italian ryegrass [11]
  herbicidal effect rating, K: Italian ryegrass: 0 (Herbicidal rate of 5% or less (almost no effect))
Persian speedwell [12]; 320 g/ha
  herbicidal effect grade, R: persian speedwell: 5 (Herbicidal rate of 90% or more (almost completely withered))
Blackgrass [13]; 320 g/ha
  herbicidal effect grade, J: blackgrass: 0 (Herbicidal rate of 5% or less (almost no effect))
Redroot pigweed [14]
  herbicidal effect rating, N: redroot pigweed: 0 (Herbicidal rate of 5% or less (almost no effect))
Blackgrass [15]
  herbicidal effect rating, J: blackgrass: 0 (Herbicidal rate of 5% or less (almost no effect))
Wild oat [16]
  herbicidal effect rating, I: wild oat: 0 (Herbicidal rate of 5% or less (almost no effect))
Barnyard grass [17]
  herbicidal effect on H (barnyard grass), rating 0-5: 3 (Herbicidal rate of 40% or more and less than 70%)
Velvetleaf [18]
  herbicidal effect rating, M: velvetleaf: 0 (Herbicidal rate of 5% or less (almost no effect))
Green foxtail [19]
  herbicidal effect rating, G: green foxtail: 0 (Herbicidal rate of 5% or less (almost no effect))
False cleavers [20]; 320 g/ha
  herbicidal effect grade, Q: false cleavers: 0 (Herbicidal rate of 5% or less (almost no effect))
Chickweed [21]; 320 g/ha
  herbicidal effect grade, P: chickweed: 5 (Herbicidal rate of 90% or more (almost completely withered))
Southern crabgrass [22]
  herbicidal effect rating, F: southern crabgrass: 0 (Herbicidal rate of 5% or less (almost no effect))
Green foxtail [23]; 320 g/ha
  herbicidal effect grade, G: green foxtail: 0 (Herbicidal rate of 5% or less (almost no effect))
Windgrass [24]; 320 g/ha
  herbicidal effect grade, L: windgrass: 0 (Herbicidal rate of 5% or less (almost no effect))
Rice flat sedge
  herbicidal effect on E (rice flat sedge), rating 0-5: 5 (Herbicidal rate of 90% or more (almost completely withered))
Barnyard grass [25]; 320 g/ha
  herbicidal effect grade, H: barnyard grass: 0 (Herbicidal rate of 5% or less (almost no effect))
Wild oat [26]; 320 g/ha
  herbicidal effect grade, I: wild oat: 0 (Herbicidal rate of 5% or less (almost no effect))
Persian speedwell [27]
  herbicidal effect rating, R: persian speedwell: 3 (Herbicidal rate of 40% or more and less than 70%)
Chinese sprangletop
  herbicidal effect on D (Chinese sprangletop), rating 0-5: 0 (Herbicidal rate of 5% or less (almost no effect))

## CCCC(=O)Oc1c(C)nn(C)c(=O)c1-c1c(-c2ccc3c(c2)OC(F)(F)O3)sc2ccccc12 [1-100]
Windgrass [1]
  herbicidal effect rating, L: windgrass: 0 (Herbicidal rate of 5% or less (almost no effect))
Velvetleaf [2]; AAH 320 g/ha
  M: velvetleaf, herbicidal effect: 3 (Herbicidal rate of 40% or more and less than 70%)
Chickweed [3]
  herbicidal effect rating, P: chickweed: 2 (Herbicidal rate of 20% or more and less than 40%)
Southern crabgrass [4]; AAH 320 g/ha
  F: southern crabgrass, herbicidal effect: 0 (Herbicidal rate of 5% or less (almost no effect))
Lambsquarters [5]
  herbicidal effect rating, O: lambsquarters: 0 (Herbicidal rate of 5% or less (almost no effect))
Barnyard grass [6]
  herbicidal effect rating, H: barnyard grass: 0 (Herbicidal rate of 5% or less (almost no effect))
Redroot pigweed [7]; AAH 320 g/ha
  N: redroot pigweed, herbicidal effect: 0 (Herbicidal rate of 5% or less (almost no effect))
Italian ryegrass [8]; AAH 320 g/ha
  K: Italian ryegrass, herbicidal effect: 1 (Herbicidal rate of 5% or more and less than 20%)
False cleavers [9]
  herbicidal effect rating, Q: false cleavers: 2 (Herbicidal rate of 20% or more and less than 40%)
Lambsquarters [10]; AAH 320 g/ha
  O: lambsquarters, herbicidal effect: 0 (Herbicidal rate of 5% or less (almost no effect))
Italian ryegrass [11]
  herbicidal effect rating, K: Italian ryegrass: 3 (Herbicidal rate of 40% or more and less than 70%)
Persian speedwell [12]; AAH 320 g/ha
  R: persian speedwell, herbicidal effect: 5 (Herbicidal rate of 90% or more (almost completely withered))
Blackgrass [13]; AAH 320 g/ha
  J: blackgrass, herbicidal effect: 0 (Herbicidal rate of 5% or less (almost no effect))
Redroot pigweed [14]
  herbicidal effect rating, N: redroot pigweed: 0 (Herbicidal rate of 5% or less (almost no effect))
Blackgrass [15]
  herbicidal effect rating, J: blackgrass: 0 (Herbicidal rate of 5% or less (almost no effect))
Wild oat [16]
  herbicidal effect rating, I: wild oat: 0 (Herbicidal rate of 5% or less (almost no effect))
Barnyard grass [17]
  herbicidal effect on H (barnyard grass), rating 0-5: 0 (Herbicidal rate of 5% or less (almost no effect))
Velvetleaf [18]
  herbicidal effect rating, M: velvetleaf: 0 (Herbicidal rate of 5% or less (almost no effect))
Green foxtail [19]
  herbicidal effect rating, G: green foxtail: 0 (Herbicidal rate of 5% or less (almost no effect))
False cleavers [20]; AAH 320 g/ha
  Q: false cleavers, herbicidal effect: 3 (Herbicidal rate of 40% or more and less than 70%)
Chickweed [21]; AAH 320 g/ha
  P: chickweed, herbicidal effect: 5 (Herbicidal rate of 90% or more (almost completely withered))
Southern crabgrass [22]
  herbicidal effect rating, F: southern crabgrass: 0 (Herbicidal rate of 5% or less (almost no effect))
Green foxtail [23]; AAH 320 g/ha
  G: green foxtail, herbicidal effect: 0 (Herbicidal rate of 5% or less (almost no effect))
Windgrass [24]; AAH 320 g/ha
  L: windgrass, herbicidal effect: 0 (Herbicidal rate of 5% or less (almost no effect))
Rice flat sedge
  herbicidal effect on E (rice flat sedge), rating 0-5: 4 (Herbicidal rate of 70% or more and less than 90%)
Barnyard grass [25]; AAH 320 g/ha
  H: barnyard grass, herbicidal effect: 0 (Herbicidal rate of 5% or less (almost no effect))
Wild oat [26]; AAH 320 g/ha
  I: wild oat, herbicidal effect: 1 (Herbicidal rate of 5% or more and less than 20%)
Persian speedwell [27]
  herbicidal effect rating, R: persian speedwell: 5 (Herbicidal rate of 90% or more (almost completely withered))
Chinese sprangletop
  herbicidal effect on D (Chinese sprangletop), rating 0-5: 0 (Herbicidal rate of 5% or less (almost no effect))
